One data set relates to MRSA (ATCC BAA-1556). Set-up: MIC MRSA: unit not given beside the values. Conditions: supplementary csv, unit not given.
In data set [1] the test system is K. pneumoniae (ATCC BAA-1705). To be noted: supplementary csv, unit not given.
Data set [2] has as its system P. aeruginosa (ATCC 27883). Set-up: MIC P. aeruginosa: unit not given beside the values. Conditions: supplementary csv, unit not given.
For another data set, the system named is E. coli (ATCC 25922). More on the design: MIC E. coli: unit not given beside the values. Conditions: supplementary csv, unit not given.
The subject of data set [3] is human red blood cells (hRBCs). Conditions: red cells of human, 2 h.

Square brackets hold non-standard residues; d marks the D form. Peptide text beside a SMILES is read from it.

The term HC50 denotes the concentration that lyses half of the red blood cells. `N=C(N)NCCC[C@@H]1NC(=O)[C@H](CCCNC(=N)N)NC(=O)[C@H](Cc2c[nH]c3ccccc23)NC(=O)[C@H](Cc2c[nH]c3ccccc23)NC(=O)[C@H](Cc2c[nH]c3ccccc23)NC1=O` [2a, [R2W3]] (cyclo(RRWWW); ring closure inferred): the “MIC MRSA” value in the data set on MRSA (ATCC BAA-1556) stood at 32. In data set [1], the “MIC K. pneumoniae” value is on record as 256. In addition, the “MIC P. aeruginosa” value in data set [2] was found to be 256. For the same compound, in the data set on E. coli (ATCC 25922), the “MIC E. coli” value was found to be 256. The HC50 in data set [3] worked out at 120 µg/mL.
The compound `N=C(N)NCCC[C@@H]1NC(=O)[C@H](CCCNC(=N)N)NC(=O)[C@H](Cc2c[nH]c3ccccc23)NC(=O)[C@H](Cc2c[nH]c3ccccc23)NC(=O)[C@H](Cc2c[nH]c3ccccc23)NC(=O)[C@H](Cc2c[nH]c3ccccc23)NC(=O)[C@H](Cc2c[nH]c3ccccc23)NC(=O)[C@H](CCCNC(=N)N)NC1=O` [3c, [R3W5]] (cyclo(RRRWWWWW); ring closure inferred) displayed an HC50 in data set [3] of 80 µg/mL.
Take `N=C(N)NCCC[C@H]1NC(=O)[C@H](Cc2c[nH]c3ccccc23)NC(=O)[C@H](Cc2c[nH]c3ccccc23)NC(=O)[C@H](Cc2c[nH]c3ccccc23)NC(=O)[C@H](Cc2c[nH]c3ccccc23)NC(=O)[C@H](Cc2c[nH]c3ccccc23)NC(=O)[C@H](Cc2c[nH]c3ccccc23)NC(=O)[C@H](Cc2c[nH]c3ccccc23)NC(=O)[C@@H](CCCNC(=N)N)NC(=O)[C@@H](CCCNC(=N)N)NC1=O` [3f, [dR3W7]] (cyclo([dR][dR][dR]WWWWWWW)): the “MIC MRSA” value against MRSA (ATCC BAA-1556) is on record as 64. In addition, in data set [1], the “MIC K. pneumoniae” value is 256. Also, in data set [2], the “MIC P. aeruginosa” value stood at 256. Also, the “MIC E. coli” value in the data set on E. coli (ATCC 25922) is listed as 256.
Take `N=C(N)NCCC[C@@H]1NC(=O)[C@H](CCCNC(=N)N)NC(=O)[C@H](CCCNC(=N)N)NC(=O)[C@H](CCCNC(=N)N)NC(=O)[C@H](Cc2c[nH]c3ccccc23)NC(=O)[C@H](Cc2c[nH]c3ccccc23)NC(=O)[C@H](Cc2c[nH]c3ccccc23)NC(=O)[C@H](Cc2c[nH]c3ccccc23)NC(=O)[C@H](Cc2c[nH]c3ccccc23)NC(=O)[C@H](CCCNC(=N)N)NC(=O)[C@H](CCCNC(=N)N)NC(=O)[C@H](CCCNC(=N)N)NC1=O` [7b, [R7W5]] (cyclo(RRRRRRRWWWWW)): the “MIC MRSA” value with MRSA (ATCC BAA-1556) turned out to be 8. In addition, in the data set on E. coli (ATCC 25922), the “MIC E. coli” value was determined as 64. For the same compound, in data set [3], the HC50 turned out to be 175 µg/mL.
In the same order, the values of `N=C(N)NCCC[C@@H]1NC(=O)[C@H](CCCNC(=N)N)NC(=O)[C@H](CCCNC(=N)N)NC(=O)[C@H](CCCNC(=N)N)NC(=O)[C@H](Cc2c[nH]c3ccccc23)NC(=O)[C@H](Cc2c[nH]c3ccccc23)NC(=O)[C@H](Cc2c[nH]c3ccccc23)NC(=O)[C@H](Cc2c[nH]c3ccccc23)NC(=O)[C@H](Cc2c[nH]c3ccccc23)NC(=O)[C@H](Cc2c[nH]c3ccccc23)NC(=O)[C@H](CCCNC(=N)N)NC(=O)[C@H](CCCNC(=N)N)NC(=O)[C@H](CCCNC(=N)N)NC1=O` [7c, [R7W6]] (cyclo(RRRRRRRWWWWWW)) are 32, 64 and 170 µg/mL.
For the compound `N=C(N)NCCC[C@@H]1NC(=O)[C@H](CCCNC(=N)N)NC(=O)[C@H](CCCNC(=N)N)NC(=O)[C@H](CCCNC(=N)N)NC(=O)[C@H](Cc2c[nH]c3ccccc23)NC(=O)[C@H](Cc2c[nH]c3ccccc23)NC(=O)[C@H](Cc2c[nH]c3ccccc23)NC(=O)[C@H](Cc2c[nH]c3ccccc23)NC(=O)[C@H](Cc2c[nH]c3ccccc23)NC(=O)[C@H](Cc2c[nH]c3ccccc23)NC(=O)[C@H](Cc2c[nH]c3ccccc23)NC(=O)[C@H](CCCNC(=N)N)NC(=O)[C@H](CCCNC(=N)N)NC(=O)[C@H](CCCNC(=N)N)NC1=O` [7d, [R7W7]] (cyclo(RRRRRRRWWWWWWW)), the “MIC MRSA” value against MRSA (ATCC BAA-1556) worked out at 16. In addition, in the data set on E. coli (ATCC 25922), the “MIC E. coli” value was determined as 32. The same compound displayed an HC50 in data set [3] of 140 µg/mL.

For the origin of these results see article PMC9743092, “Membrane-Active Cyclic Amphiphilic Peptides: Broad-Spectrum Antibacterial Activity Alone and in Combination with Antibiotics” (Journal of Medicinal Chemistry, 2022).
